Data published in ChEMBL document CHEMBL5634144, “Design, synthesis and biological evaluation of novel DCLK1 inhibitor containing purine skeleton for the treatment of pancreatic cancer” (Eur J Med Chem, 2023).
Calls of active or inactive are those of the source. The rule behind the calls is not given here.

Assays:
SW1990 [1] = assay: Induction of apoptosis in human SW1990 cells assessed as late apoptotic cells at 0.5 uM incubated for 6 days by Annexin V/PI staining based flow cytometry (reference value: 2.01 %); format: functional; details: time 6 day
SW1990 [2] = assay: Induction of apoptosis in human SW1990 cells assessed as necrotic cells at 1 uM incubated for 6 days by Annexin V/PI staining based flow cytometry (reference value: 0.50 %); format: functional; details: time 6 day
SW1990 [3] = assay: Induction of apoptosis in human SW1990 cells assessed as early apoptotic cells at 1 uM incubated for 6 days by Annexin V/PI staining based flow cytometry (reference value: 4.55 %); format: functional; details: time 6 day
SW1990 [4] = assay: Antitumor activity against human SW1990 cells xenografted in BALB/c nude mouse model assessed as change in nuclear chromatin marginalization treated intraperitoneally for 21 days consecutively by H and E staining based analysis; format: functional; details: dose 30-60 mg/kg, route ip, time 21.0 day
SW1990 [5] = assay: Antiproliferative activity against human SW1990 cells assessed as inhibition cell proliferation incubated for 6 days by MTT assay; format: functional, cell-based; details: SW1990, 144 h
SW1990 [6] = assay: Induction of apoptosis in human SW1990 cells assessed as necrotic cells at 2 uM incubated for 6 days by Annexin V/PI staining based flow cytometry (reference value: 0.50 %); format: functional; details: time 6 day
SW1990 [7] = assay: Induction of cell cycle arrest at G2/M phase in human SW1990 cells at 0.5 uM incubated for 6 days by PI staining based flow cytometry (reference value: 29.15 %); format: functional; details: time 6 day
SW1990 [8] = assay: Induction of cell cycle arrest at G0/G1 phase in human SW1990 cells at 0.5 uM incubated for 6 days by PI staining based flow cytometry (reference value: 49.65 %); format: functional; details: time 6 day
SW1990 [9] = assay: Induction of cell cycle arrest at G0/G1 phase in human SW1990 cells at 2 uM incubated for 6 days by PI staining based flow cytometry (reference value: 49.65 %); format: functional; details: time 6 day
SW1990 [10] = assay: Antitumor activity against human SW1990 cells xenografted in BALB/c nude mouse model assessed as increase in E-cadherin level at 30 to 60 mg/kg, ip for 21 days consecutively by Western blot analysis; format: functional, organism-based; details: dose 30-60 mg/kg, time 21.0 day
SW1990 [11] = assay: Antitumor activity against human SW1990 cells xenografted in BALB/c nude mouse model assessed as decrease in N-cadherin level at 30 to 60 mg/kg, ip for 21 days consecutively by Western blot analysis; format: functional, organism-based; details: dose 30-60 mg/kg, time 21.0 day
SW1990 [12] = assay: Induction of apoptosis in human SW1990 cells assessed as viable cells at 0.5 uM incubated for 6 days by Annexin V/PI staining based flow cytometry (reference value: 92.93 %); format: functional; details: SW1990, 144 h, time 6 day, read-out: Activity
SW1990 [13] = assay: Induction of apoptosis in human SW1990 cells assessed as viable cells at 2 uM incubated for 6 days by Annexin V/PI staining based flow cytometry (reference value: 92.93 %); format: functional; details: SW1990, 144 h, time 6 day, read-out: Activity
SW1990 [14] = assay: Antitumor activity against human SW1990 cells xenografted in BALB/c nude mouse model assessed as decrease in Snail level at 30 to 60 mg/kg, ip for 21 days consecutively by Western blot analysis; format: functional, organism-based; details: dose 30-60 mg/kg, time 21.0 day
SW1990 [15] = assay: Induction of cell cycle arrest at G2/M phase in human SW1990 cells at 1 uM incubated for 6 days by PI staining based flow cytometry (reference value: 29.15 %); format: functional; details: time 6 day
CAKI-1 = assay: Antiproliferative activity against human CAKI-1 cells assessed as inhibition cell proliferation incubated for 6 days by MTT assay; format: functional, cell-based; details: CAKI-1, 144 h
SW1990 [16] = assay: Antitumor activity against human SW1990 cells xenografted in BALB/c nude mouse model assessed as change in agglutination treated intraperitoneally for 21 days consecutively by H and E staining based analysis; format: functional; details: dose 30-60 mg/kg, route ip, time 21.0 day
SW1990 [17] = assay: Antitumor activity against human SW1990 cells xenografted in BALB/c nude mouse model assessed as tumor growth inhibition treated intraperitoneally for 21 days consecutively; format: functional; details: dose 30-60 mg/kg, route ip, time 21.0 day
[18] = Toxicity in BALB/c nude mouse xenografted with human SW1990 cells assessed as animal mortality at 30 to 60 mg/kg, ip for 21 days consecutively; format: organism-based; details: in vivo, 504 h, dose 30-60 mg/kg, time 21 day
SW1990 [19] = assay: Downregulation of N-cadherin level in human SW1990 cells at 0.5 to 2 uM by Western blot analysis; format: functional, cell-based; details: dose 0.5-2 µM
SW1990 [20] = assay: Induction of cell cycle arrest at G0/G1 phase in human SW1990 cells at 1 uM incubated for 6 days by PI staining based flow cytometry (reference value: 49.65 %); format: functional; details: time 6 day
[21] = Toxicity in BALB/c nude mouse xenografted with human SW1990 cells assessed as change in body weight at 30 to 60 mg/kg, ip for 21 days consecutively; format: organism-based; details: in vivo, 504 h, dose 30-60 mg/kg, time 21 day
SW1990 [22] = assay: Antitumor activity against human SW1990 cells xenografted in BALB/c nude mouse model assessed as tumor growth inhibition at 60 mg/kg, ip for 21 days consecutively relative to control; format: functional; details: SW1990, 504 h, time 21 day, read-out: TGI
SW1990 [23] = assay: Antitumor activity in human SW1990 cells assessed as decrease in CD44 level at 0.5 to 2 uM by immunofluorescence based analysis; format: functional, cell-based; details: dose 0.5-2 µM
SW1990 [24] = assay: Antitumor activity against human SW1990 cells xenografted in BALB/c nude mouse model assessed as decrease in CD44 level at 30 to 60 mg/kg, ip for 21 days consecutively by IHC analysis; format: functional, organism-based; details: dose 30-60 mg/kg, time 21.0 day
SW1990 [25] = assay: Inhibition of colony formation of human SW1990 cells at 2 uM incubated for 6 days by crystal violet staining based analysis; format: functional, cell-based; details: time 6.0 day
SW1990 [26] = assay: Induction of cell cycle arrest at G2/M phase in human SW1990 cells at 2 uM incubated for 6 days by PI staining based flow cytometry (reference value: 29.15 %); format: functional; details: time 6 day
SW1990 [27] = assay: Induction of apoptosis in human SW1990 cells assessed as late apoptotic cells at 2 uM incubated for 6 days by Annexin V/PI staining based flow cytometry (reference value: 2.01 %); format: functional; details: time 6 day
SW1990 [28] = assay: Inhibition of cell invasion in human SW1990 cells at 0.5 to 2 uM by transwell assay; format: functional, cell-based; details: dose 0.5-2 µM
SW1990 [29] = assay: Induction of apoptosis in human SW1990 cells assessed as early apoptotic cells at 0.5 uM incubated for 6 days by Annexin V/PI staining based flow cytometry (reference value: 4.55 %); format: functional; details: time 6 day
[30] = Toxicity in BALB/c nude mouse xenografted with human SW1990 cells assessed as drug tolerance at 30 to 60 mg/kg, ip for 21 days consecutively; format: organism-based; details: in vivo, 504 h, dose 30-60 mg/kg, time 21 day
SW1990 [31] = assay: Downregulation of Snail level in human SW1990 cells at 0.5 to 2 uM by Western blot analysis; format: functional, cell-based; details: dose 0.5-2 µM
SW1990 [32] = assay: Induction of apoptosis in human SW1990 cells assessed as late apoptotic cells at 1 uM incubated for 6 days by Annexin V/PI staining based flow cytometry (reference value: 2.01 %); format: functional; details: time 6 day
SW1990 [33] = assay: Potency index, ratio of DCLK1-IN-1 IC50 to test compound IC50 for human SW1990 cells assessed as inhibition cell proliferation incubated for 6 days by MTT assay; format: functional; details: time 6 day
SW1990 [34] = assay: Induction of apoptosis in human SW1990 cells assessed as necrotic cells at 0.5 uM incubated for 6 days by Annexin V/PI staining based flow cytometry (reference value: 0.50 %); format: functional; details: time 6 day

With `COc1cc(N2CCN(C)CC2)ccc1Nc1nc(Nc2ccccc2S(=O)(=O)C(C)C)c2nc[nH]c2n1` the Activity (SW1990 [1]) was 6.77%, the Activity (SW1990 [2]) was 8.2% and the Activity (SW1990 [3]) was 19.46%. The Activity (SW1990 [4]) was “Dose-Dependent Effect”, the IC50 (SW1990 [5]) was 0.6 µM and the Activity (SW1990 [6]) was 5.86%. It also gave an Activity (SW1990 [7]) of 27.55%, an Activity (SW1990 [8]) of 52.79% and an Activity (SW1990 [9]) of 63.14%. The Activity (SW1990 [10]) was “Active”, the Activity (SW1990 [11]) was “Active” and the viability at 0.5 µM (SW1990 [12]) was 78.5%. For the same compound, the viability at 2 µM (SW1990 [13]) was 61%, the Activity (SW1990 [14]) was “Active” and the Activity (SW1990 [15]) was 23.47%. For the same compound, the IC50 (CAKI-1) was 10.1 µM, the Activity (SW1990 [16]) was “Dose-Dependent Effect” and the inhibition (SW1990 [17]) was “Dose-Dependent Effect”. For the same compound, the Activity [18] was “Non-Toxic”, the Activity (SW1990 [19]) was “Active” and the Activity (SW1990 [20]) was 56.78%. For the same compound, the Activity [21] was “Toxic”, the inhibition in vivo at 60 mg/kg (SW1990 [22]) was 68.6% and the Activity (SW1990 [23]) was “Active”. The Activity (SW1990 [24]) was “Active”, the inhibition (SW1990 [25]) was “Active” and the Activity (SW1990 [26]) was 22.63%. The Activity (SW1990 [27]) was 11.39%, the inhibition (SW1990 [28]) was “Active” and the Activity (SW1990 [29]) was 9.19%. The Activity [30] was “Non-Toxic”, the Activity (SW1990 [31]) was “Active” and the Activity (SW1990 [32]) was 7.06%. The “Ratio IC50” value (SW1990 [33]) was 22 and the Activity (SW1990 [34]) was 5.58%.
